“And” between values parts separate entries of the source, which are not always exact repeats. Equal values may be shown once.
Key:
CAKI-1 = experiment: NCI cytotoxicity screen; format: cell-based, human; details: 10.0 μM one dose
EKVX = experiment: NCI cytotoxicity screen; format: cell-based, human; details: 10.0 μM one dose
NCI-H322M = experiment: NCI cytotoxicity screen; format: cell-based, human; details: 10.0 μM one dose
U251 = experiment: NCI cytotoxicity screen; format: cell-based, human; details: 10.0 μM one dose; U-251
SF-268 = experiment: NCI cytotoxicity screen; format: cell-based, human; details: 10.0 μM one dose
UO-31 = experiment: NCI cytotoxicity screen; format: cell-based, human; details: 10.0 μM one dose
SNB-75 = experiment: NCI cytotoxicity screen; format: cell-based, human; details: 10.0 μM one dose
HOP-92 = experiment: NCI cytotoxicity screen; format: cell-based, human; details: 10.0 μM one dose
HS 578T = experiment: NCI cytotoxicity screen; format: cell-based, human; details: 10.0 μM one dose; HS-578T
UACC-62 = experiment: NCI cytotoxicity screen; format: cell-based, human; details: 10.0 μM one dose
MDA-MB-231/ATCC = experiment: NCI cytotoxicity screen; format: cell-based, human; details: 10.0 μM one dose; MDA-MB-231/ATCC
MCF7 = experiment: NCI cytotoxicity screen; format: cell-based, human; details: 10.0 μM one dose; MCF-7
NCI-H522 = experiment: NCI cytotoxicity screen; format: cell-based, human; details: 10.0 μM one dose
CDK9 = CDK9 (Homo sapiens, UniProt P50750); experiment: biochemical; details: IC50 CDK9 inhibition
Chain of CDK9 (P50750 whole entry): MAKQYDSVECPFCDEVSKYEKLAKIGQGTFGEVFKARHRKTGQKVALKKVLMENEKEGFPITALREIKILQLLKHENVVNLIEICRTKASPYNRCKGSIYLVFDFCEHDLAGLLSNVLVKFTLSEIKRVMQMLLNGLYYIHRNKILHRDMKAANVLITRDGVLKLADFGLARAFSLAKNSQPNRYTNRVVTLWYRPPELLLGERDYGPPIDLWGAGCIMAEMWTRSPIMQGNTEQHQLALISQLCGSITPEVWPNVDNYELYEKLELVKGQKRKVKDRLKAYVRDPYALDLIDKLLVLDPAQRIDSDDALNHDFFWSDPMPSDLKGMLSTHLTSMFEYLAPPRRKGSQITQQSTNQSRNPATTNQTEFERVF
Chain of CDK9 (O60563 whole entry partner): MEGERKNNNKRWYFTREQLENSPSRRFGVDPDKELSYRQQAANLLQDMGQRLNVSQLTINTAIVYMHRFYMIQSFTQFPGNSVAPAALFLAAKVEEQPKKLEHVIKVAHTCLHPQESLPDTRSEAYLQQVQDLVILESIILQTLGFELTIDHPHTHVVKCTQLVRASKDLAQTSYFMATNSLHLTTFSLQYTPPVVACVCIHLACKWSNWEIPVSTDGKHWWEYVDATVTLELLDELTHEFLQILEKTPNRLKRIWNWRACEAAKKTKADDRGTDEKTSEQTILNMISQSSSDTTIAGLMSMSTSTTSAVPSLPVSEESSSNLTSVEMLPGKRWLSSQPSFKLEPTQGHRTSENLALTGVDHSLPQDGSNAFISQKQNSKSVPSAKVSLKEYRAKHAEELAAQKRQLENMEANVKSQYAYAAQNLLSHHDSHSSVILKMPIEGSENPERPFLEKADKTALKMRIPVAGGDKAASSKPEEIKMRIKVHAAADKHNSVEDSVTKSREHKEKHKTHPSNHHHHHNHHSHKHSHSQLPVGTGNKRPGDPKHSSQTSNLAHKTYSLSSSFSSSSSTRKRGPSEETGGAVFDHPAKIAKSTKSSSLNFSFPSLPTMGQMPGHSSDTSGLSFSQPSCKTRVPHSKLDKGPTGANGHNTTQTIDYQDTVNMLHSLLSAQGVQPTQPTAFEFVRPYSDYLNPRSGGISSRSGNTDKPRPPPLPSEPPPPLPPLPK

EGFR = EGFR (Homo sapiens, UniProt P00533); experiment: biochemical; details: IC50 EGFR inhibition
Chain of EGFR (P00533 25-1210): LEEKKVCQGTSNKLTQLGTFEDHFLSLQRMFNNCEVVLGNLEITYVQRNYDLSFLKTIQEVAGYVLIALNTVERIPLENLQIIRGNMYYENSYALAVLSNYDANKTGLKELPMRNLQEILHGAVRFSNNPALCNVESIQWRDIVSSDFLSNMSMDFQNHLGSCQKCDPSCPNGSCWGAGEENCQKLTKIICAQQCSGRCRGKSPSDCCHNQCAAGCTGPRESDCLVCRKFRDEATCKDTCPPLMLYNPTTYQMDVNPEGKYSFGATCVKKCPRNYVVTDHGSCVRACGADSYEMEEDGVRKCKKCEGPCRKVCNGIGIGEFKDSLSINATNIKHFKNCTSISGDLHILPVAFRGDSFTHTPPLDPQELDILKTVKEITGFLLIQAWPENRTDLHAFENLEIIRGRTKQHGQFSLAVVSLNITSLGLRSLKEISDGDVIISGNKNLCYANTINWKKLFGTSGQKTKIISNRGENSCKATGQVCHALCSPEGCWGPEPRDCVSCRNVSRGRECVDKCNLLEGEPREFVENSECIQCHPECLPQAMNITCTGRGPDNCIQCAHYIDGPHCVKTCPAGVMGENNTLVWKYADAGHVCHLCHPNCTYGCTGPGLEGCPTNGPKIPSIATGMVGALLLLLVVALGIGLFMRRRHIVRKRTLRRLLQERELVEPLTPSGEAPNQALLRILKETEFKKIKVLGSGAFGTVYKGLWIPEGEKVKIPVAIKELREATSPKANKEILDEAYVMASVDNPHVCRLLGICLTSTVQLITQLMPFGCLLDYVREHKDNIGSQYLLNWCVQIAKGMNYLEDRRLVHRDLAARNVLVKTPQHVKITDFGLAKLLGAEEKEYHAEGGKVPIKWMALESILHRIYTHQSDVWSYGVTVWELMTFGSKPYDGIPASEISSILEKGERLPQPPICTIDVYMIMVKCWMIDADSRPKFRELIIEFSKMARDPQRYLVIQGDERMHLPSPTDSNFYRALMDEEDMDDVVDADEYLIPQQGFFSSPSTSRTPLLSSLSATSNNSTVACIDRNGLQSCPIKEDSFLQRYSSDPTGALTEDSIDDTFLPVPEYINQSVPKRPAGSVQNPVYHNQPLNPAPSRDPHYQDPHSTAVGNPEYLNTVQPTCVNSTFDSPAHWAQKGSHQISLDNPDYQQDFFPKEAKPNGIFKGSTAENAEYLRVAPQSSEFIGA

COX-2 = biological target: T1, COX-2 (Ovis aries, UniProt P79208); experiment: Colorimetric COX; format: biochemical, ovine
T1 sequence (P79208 17-603): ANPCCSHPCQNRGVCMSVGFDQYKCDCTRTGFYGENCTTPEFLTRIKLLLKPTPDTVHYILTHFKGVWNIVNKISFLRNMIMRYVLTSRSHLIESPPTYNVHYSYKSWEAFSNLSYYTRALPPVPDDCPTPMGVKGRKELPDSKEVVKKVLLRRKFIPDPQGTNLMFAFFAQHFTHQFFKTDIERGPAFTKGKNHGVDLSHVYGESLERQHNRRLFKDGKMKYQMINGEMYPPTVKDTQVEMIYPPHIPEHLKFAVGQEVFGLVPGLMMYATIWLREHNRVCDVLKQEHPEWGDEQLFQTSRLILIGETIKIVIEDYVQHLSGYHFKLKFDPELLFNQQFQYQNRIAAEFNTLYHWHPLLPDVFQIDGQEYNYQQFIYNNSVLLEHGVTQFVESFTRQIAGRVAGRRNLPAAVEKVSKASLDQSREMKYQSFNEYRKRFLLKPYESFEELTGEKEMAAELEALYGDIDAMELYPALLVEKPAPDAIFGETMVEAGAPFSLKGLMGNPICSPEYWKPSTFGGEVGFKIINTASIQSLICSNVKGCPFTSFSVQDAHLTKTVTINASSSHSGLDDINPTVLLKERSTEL

HER2 = HER2 (Homo sapiens, UniProt P04626); experiment: HER2 tyrosine kinase assay; format: biochemical; details: IC50 HER2 inhibition
Chain of HER2 (P04626 23-1255): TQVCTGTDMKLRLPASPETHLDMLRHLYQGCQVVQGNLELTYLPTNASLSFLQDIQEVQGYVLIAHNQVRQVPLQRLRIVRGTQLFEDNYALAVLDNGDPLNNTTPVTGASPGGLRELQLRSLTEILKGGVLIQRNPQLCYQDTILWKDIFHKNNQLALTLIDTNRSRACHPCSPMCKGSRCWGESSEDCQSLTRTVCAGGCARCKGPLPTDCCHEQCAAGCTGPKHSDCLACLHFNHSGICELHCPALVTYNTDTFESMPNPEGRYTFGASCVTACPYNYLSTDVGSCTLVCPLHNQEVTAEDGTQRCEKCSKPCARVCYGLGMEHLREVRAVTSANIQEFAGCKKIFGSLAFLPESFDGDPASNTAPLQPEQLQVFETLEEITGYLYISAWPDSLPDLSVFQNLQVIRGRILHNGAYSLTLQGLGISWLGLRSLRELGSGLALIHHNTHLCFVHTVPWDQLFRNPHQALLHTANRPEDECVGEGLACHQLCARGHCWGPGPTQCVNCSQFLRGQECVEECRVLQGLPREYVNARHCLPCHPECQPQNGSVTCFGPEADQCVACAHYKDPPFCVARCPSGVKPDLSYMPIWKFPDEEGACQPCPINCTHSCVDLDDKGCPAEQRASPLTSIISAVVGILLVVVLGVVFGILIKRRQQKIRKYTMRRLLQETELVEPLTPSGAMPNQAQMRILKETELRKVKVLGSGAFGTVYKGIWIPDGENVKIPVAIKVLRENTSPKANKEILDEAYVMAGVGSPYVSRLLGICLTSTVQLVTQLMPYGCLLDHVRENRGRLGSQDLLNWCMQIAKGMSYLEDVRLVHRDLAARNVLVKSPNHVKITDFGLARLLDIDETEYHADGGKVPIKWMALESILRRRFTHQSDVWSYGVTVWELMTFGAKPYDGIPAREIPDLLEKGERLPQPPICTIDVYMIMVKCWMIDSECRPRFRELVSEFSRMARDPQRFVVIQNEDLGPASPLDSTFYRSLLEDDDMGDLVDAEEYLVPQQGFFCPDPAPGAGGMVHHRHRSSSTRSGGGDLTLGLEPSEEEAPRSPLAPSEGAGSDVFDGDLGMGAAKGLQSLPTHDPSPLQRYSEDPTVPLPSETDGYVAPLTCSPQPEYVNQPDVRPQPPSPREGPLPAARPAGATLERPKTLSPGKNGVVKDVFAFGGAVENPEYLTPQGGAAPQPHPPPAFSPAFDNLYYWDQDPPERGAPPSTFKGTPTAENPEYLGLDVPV

59 cancer cell lines = experiment: NCI cytotoxicity screen, full panel; format: cell-based, human; details: 10.0 μM one dose; 59 cell lines
RPMI-8226 = experiment: NCI cytotoxicity screen; format: cell-based, human; details: 10.0 μM one dose
SF-539 = experiment: NCI cytotoxicity screen; format: cell-based, human; details: 10.0 μM one dose
RXF 393 = experiment: NCI cytotoxicity screen; format: cell-based, human; details: 10.0 μM one dose
MDA-MB-468 = experiment: NCI cytotoxicity screen; format: cell-based, human; details: 10.0 μM one dose
SN12C = experiment: NCI cytotoxicity screen; format: cell-based, human; details: 10.0 μM one dose; SN-12C
NCI-H226 = experiment: NCI cytotoxicity screen; format: cell-based, human; details: 10.0 μM one dose
HCT-116 = experiment: NCI cytotoxicity screen; format: cell-based, human; details: 10.0 μM one dose
SK-MEL-5 = experiment: NCI cytotoxicity screen; format: cell-based, human; details: 10.0 μM one dose
OVCAR-5 = experiment: NCI cytotoxicity screen; format: cell-based, human; details: 10.0 μM one dose; OVCAR-5
T-47D = experiment: NCI cytotoxicity screen; format: cell-based, human; details: 10.0 μM one dose; T-47D
SNB-19 = experiment: NCI cytotoxicity screen; format: cell-based, human; details: 10.0 μM one dose
SR = experiment: NCI cytotoxicity screen; format: cell-based, human; details: 10.0 μM one dose
MALME-3M = experiment: NCI cytotoxicity screen; format: cell-based, human; details: 10.0 μM one dose; MALME-3M
786-0 = experiment: NCI cytotoxicity screen; format: cell-based, human; details: 10.0 μM one dose
BT-549 = experiment: NCI cytotoxicity screen; format: cell-based, human; details: 10.0 μM one dose
M14 = experiment: NCI cytotoxicity screen; format: cell-based, human; details: 10.0 μM one dose
LOX IMVI = experiment: NCI cytotoxicity screen; format: cell-based, human; details: 10.0 μM one dose
KM12 = experiment: NCI cytotoxicity screen; format: cell-based, human; details: 10.0 μM one dose; KM-12
MDA-MB-435 = experiment: NCI cytotoxicity screen; format: cell-based, human; details: 10.0 μM one dose
NCI-H23 = experiment: NCI cytotoxicity screen; format: cell-based, human; details: 10.0 μM one dose

Compound | GI % (CAKI-1) | GI % (EKVX) | GI % (U251) | GI % (SF-268) | GI % (UO-31) | GI % (SNB-75) | GI % (HS 578T) | GI % (MDA-MB-231/ATCC) | GI % (MCF7) | GI % (NCI-H522) | MG% (mean growth percent) (59 cancer cell lines) | GI % (SF-539) | GI % (RXF 393) | GI % (MDA-MB-468) | GI % (T-47D) | further results
4-((4-Oxo-2-((2-oxo-2-(2-(1-(p-tolyl)ethylidene)hydrazineyl)ethyl)thio)quinazolin-3(4H)-yl)methyl)benzenesulfonamide [Compound 10] | 16% | 10% | 15% | 14% | 20% |  |  |  |  |  |  |  |  |  |  | GI % (NCI-H322M): 14%
NS(=O)(=O)c1ccc(Cn2c(=S)[nH]c3ccccc3c2=O)cc1 [Compound 1, 4-((4-Oxo-2-thioxo-1,4-dihydroquinazolin-3(2H)-yl)methyl)benzenesulfonamide] | 11% |  |  |  | 19% | 23% |  |  |  |  |  |  |  |  |  | GI % (HOP-92): 14%
CCOC(=O)CSc1nc2ccccc2c(=O)n1Cc1ccc(S(N)(=O)=O)cc1 [Compound 2, Ethyl 2-((4-oxo-3-(4-sulfamoylbenzyl)-3,4-dihydroquinazolin-2-yl)thio)acetate] |  |  |  |  | 16% | 15% |  |  |  |  |  |  |  |  |  | 
NS(=O)(=O)c1ccc(Cn2c(SCC(=O)NN=Cc3ccccc3)nc3ccccc3c2=O)cc1 [Compound 4, 4-((2-((2-(2-Benzylidenehydrazineyl)-2-oxoethyl)thio)-4-oxoquinazolin-3(4H)-yl)methyl)benzenesulfonamide] | 16% | 14% |  |  | 21% | 13% | 11% | 12% | 14% | 18% |  |  |  |  |  | GI % (UACC-62): 11%
COc1cccc(C=NNC(=O)CSc2nc3ccccc3c(=O)n2Cc2ccc(S(N)(=O)=O)cc2)c1 [Compound 7, 4-((2-((2-(2-(3-Methoxybenzylidene)hydrazineyl)-2-oxoethyl)thio)-4-oxoquinazolin-3(4H)-yl)methyl)benzenesulfonamide] |  |  |  |  |  |  |  |  |  |  | 89.4% and 89.35% |  |  |  |  | IC50 (CDK9): 155 ± 3.81 nM; IC50 (EGFR): 594 ± 14.5 nM; IC50 (COX-2): 50500 ± 1060 nM; IC50 (HER2): 387 nM
COc1cc(C=NNC(=O)CSc2nc3ccccc3c(=O)n2Cc2ccc(S(N)(=O)=O)cc2)cc(OC)c1OC [Compound 8, 4-((4-Oxo-2-((2-oxo-2-(2-(3,4,5-trimethoxybenzylidene)hydrazineyl)ethyl)thio)quinazolin-3(4H)-yl)methyl)benzenesulfonamide] | 14% | 15% |  | 15% | 25% |  | 15% | 15% | 11% | 48% | 96.8% and 96.77% | 12% | 10% | 19% |  | GI % (RPMI-8226): 13%; GI % (SN12C): 10%; GI % (NCI-H322M): 15%; GI % (NCI-H226): 11%
COc1cccc(C(C)=NNC(=O)CSc2nc3ccccc3c(=O)n2Cc2ccc(S(N)(=O)=O)cc2)c1 [Compound 11, 4-((2-((2-(2-(1-(3-Methoxyphenyl)ethylidene)hydrazineyl)-2-oxoethyl)thio)-4-oxoquinazolin-3(4H)-yl)methyl)benzenesulfonamide] | 21% |  | 20% | 25% | 21% | 22% | 19% | 25% | 10% | 52% | 94.5% and 94.54% | 28% | 16% | 19% | 11% | GI % (HCT-116): 20%; GI % (SK-MEL-5): 10%; GI % (OVCAR-5): 12%; GI % (SNB-19): 15%
COc1cc(OC)cc(C(C)=NNC(=O)CSc2nc3ccccc3c(=O)n2Cc2ccc(S(N)(=O)=O)cc2)c1 [Compound 12, 4-((2-((2-(2-(1-(3,5-Dimethoxyphenyl)ethylidene)hydrazineyl)-2-oxoethyl)thio)-4-oxoquinazolin-3(4H)-yl)methyl)benzenesulfonamide] | 16% |  | 26% | 64% |  | 39% | 11% | 28% |  | 62% | 88.4% | 64% | 30% | 27% | 62% | GI % (UACC-62): 17%; GI % (SR): 28%; GI % (MALME-3M): 30%; GI % (786-0): 15%; GI % (BT-549): 57%; GI % (HCT-116): 17%; GI % (M14): 11%; IC50 (CDK9): 320 ± 7.85 nM; IC50 (EGFR): 492 ± 12.1 nM; GI % (SK-MEL-5): 32%; GI % (OVCAR-5): 14%; IC50 (COX-2): 21300 ± 440 nM; GI % (LOX IMVI): 20%; GI % (SNB-19): 49%; GI % (KM12): 30%; IC50 (HER2): 111 nM; GI % (MDA-MB-435): 30%; GI % (NCI-H23): 17%
COc1cc(C(C)=NNC(=O)CSc2nc3ccccc3c(=O)n2Cc2ccc(S(N)(=O)=O)cc2)cc(OC)c1OC [Compound 13, 4-((4-Oxo-2-((2-oxo-2-(2-(1-(3,4,5-trimethoxyphenyl)ethylidene)hydrazineyl)ethyl)thio)quinazolin-3(4H)-yl)methyl)benzenesulfonamide] | 15% |  |  |  | 24% | 13% |  | 11% | 11% |  | 97.44% |  |  | 16% | 15% | GI % (SR): 12%
